Tests used:
Assay in all cases: relative viability (nuclei count vs DMSO), 5 days (fraction); higher = more cells survive
Everolimus + Foretinib = compound: CO[C@H]1C[C@@H]2CC[C@@H](C)[C@@](O)(O2)C(=O)C(=O)N2CCCC[C@H]2C(=O)O[C@H]([C@H](C)C[C@@H]2CC[C@@H](OCCO)[C@H](OC)C2)CC(=O)[C@H](C)/C=C(\C)[C@@H](O)[C@@H](OC)C(=O)[C@H](C)C[C@H](C)/C=C/C=C/C=C/1C [Everolimus] + COc1cc2c(Oc3ccc(NC(=O)C4(C(=O)Nc5ccc(F)cc5)CC4)cc3F)ccnc2cc1OCCCN1CCOCC1 [Foretinib] (partner 0.25 µM)
Procedure, shortened: (§1)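 Lung cancer cell lines in 1536-well plates got either a single drug or a fixed anchor-drug dose together with five library-drug doses (not always all listed) in √10 steps, by pin tool, on the day after seeding. Nuclei were counted after 5 days, and relative viability is the treated-to-vehicle ratio of nuclei counts. Values are medians of duplicate plates.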

Everolimus + Pemetrexed = compound: CO[C@H]1C[C@@H]2CC[C@@H](C)[C@@](O)(O2)C(=O)C(=O)N2CCCC[C@H]2C(=O)O[C@H]([C@H](C)C[C@@H]2CC[C@@H](OCCO)[C@H](OC)C2)CC(=O)[C@H](C)/C=C(\C)[C@@H](O)[C@@H](OC)C(=O)[C@H](C)C[C@H](C)/C=C/C=C/C=C/1C [Everolimus] + Nc1nc2[nH]cc(CCc3ccc(C(=O)N[C@@H](CCC(=O)O)C(=O)O)cc3)c2c(=O)[nH]1 [Pemetrexed] (partner 0.2 µM)
Procedure, shortened: as §1

Everolimus + OSI-027 = compound: CO[C@H]1C[C@@H]2CC[C@@H](C)[C@@](O)(O2)C(=O)C(=O)N2CCCC[C@H]2C(=O)O[C@H]([C@H](C)C[C@@H]2CC[C@@H](OCCO)[C@H](OC)C2)CC(=O)[C@H](C)/C=C(\C)[C@@H](O)[C@@H](OC)C(=O)[C@H](C)C[C@H](C)/C=C/C=C/C=C/1C [Everolimus] + COc1cccc2cc(-c3nc([C@H]4CC[C@H](C(=O)O)CC4)n4ncnc(N)c34)[nH]c12 [OSI-027] (partner 0.5 µM)
Procedure, shortened: as §1

Everolimus + AZD7762 = compound: CO[C@H]1C[C@@H]2CC[C@@H](C)[C@@](O)(O2)C(=O)C(=O)N2CCCC[C@H]2C(=O)O[C@H]([C@H](C)C[C@@H]2CC[C@@H](OCCO)[C@H](OC)C2)CC(=O)[C@H](C)/C=C(\C)[C@@H](O)[C@@H](OC)C(=O)[C@H](C)C[C@H](C)/C=C/C=C/C=C/1C [Everolimus] + NC(=O)Nc1cc(-c2cccc(F)c2)sc1C(=O)N[C@H]1CCCNC1 [AZD7762] (partner 0.2 µM)
Procedure, shortened: as §1

Row | Cell Line | relative viability (Everolimus + Foretinib; first compound 0.01 µM) | relative viability (Everolimus + Foretinib; first compound 0.03162 µM) | relative viability (Everolimus + Foretinib; first compound 0.1 µM) | relative viability (Everolimus + Foretinib; first compound 0.3162 µM) | relative viability (Everolimus + Foretinib; first compound 1 µM) | relative viability (Everolimus + Pemetrexed; first compound 0.01 µM) | relative viability (Everolimus + Pemetrexed; first compound 0.03162 µM) | relative viability (Everolimus + Pemetrexed; first compound 0.1 µM) | relative viability (Everolimus + Pemetrexed; first compound 0.3162 µM) | relative viability (Everolimus + Pemetrexed; first compound 1 µM) | relative viability (Everolimus + OSI-027; first compound 0.01 µM) | relative viability (Everolimus + OSI-027; first compound 0.03162 µM) | relative viability (Everolimus + OSI-027; first compound 0.1 µM) | relative viability (Everolimus + OSI-027; first compound 0.3162 µM) | relative viability (Everolimus + OSI-027; first compound 1 µM) | relative viability (Everolimus + AZD7762; first compound 0.01 µM) | relative viability (Everolimus + AZD7762; first compound 0.03162 µM) | relative viability (Everolimus + AZD7762; first compound 0.1 µM) | relative viability (Everolimus + AZD7762; first compound 0.3162 µM) | relative viability (Everolimus + AZD7762; first compound 1 µM)
1 | LC-2-ad | 0.741 | 0.659 | 0.703 | 0.674 | 0.693 | 0.275 | 0.301 | 0.286 | 0.291 | 0.253 | 0.669 | 0.7 | 0.602 | 0.618 | 0.569 | 0.802 | 0.85 | 0.775 | 0.79 | 0.83
2 | NCI-H1648 |  |  |  |  |  | 0.544 | 0.538 | 0.659 | 0.629 | 0.742 | 0.247 | 0.252 | 0.268 | 0.281 | 0.257 | 0.622 | 0.634 | 0.631 | 0.735 | 1.02
3 | HCC-44 |  |  |  |  |  | 0.769 | 0.802 | 0.675 | 0.705 | 0.727 | 0.382 | 0.438 | 0.434 | 0.384 | 0.548 | 1.1 | 1.18 | 1.03 | 1.12 | 1.25
4 | NCI-H2228 | 0.603 | 0.586 | 0.575 | 0.413 | 0.556 | 0.252 | 0.313 | 0.312 | 0.285 | 0.243 | 0.23 | 0.295 | 0.237 | 0.21 | 0.265 |  |  |  |  | 
5 | ABC-1 | 0.82 | 0.826 | 0.645 | 0.699 | 0.739 |  |  |  |  |  | 0.342 | 0.281 | 0.279 | 0.357 | 0.316 | 0.667 | 0.479 | 0.747 | 0.702 | 0.89
6 | COR-L23 | 0.942 | 0.993 | 0.871 | 0.97 | 0.959 | 0.196 | 0.194 | 0.189 | 0.193 | 0.186 | 0.334 | 0.352 | 0.374 | 0.419 | 0.367 |  |  |  |  | 
7 | NCI-H661 | 0.876 | 0.702 | 0.738 | 0.73 | 0.664 | 0.805 | 0.763 | 0.863 | 0.793 | 0.664 | 0.471 | 0.44 | 0.433 | 0.4 | 0.511 |  |  |  |  | 
8 | UMC-11 | 0.478 | 0.371 | 0.441 | 0.422 | 0.401 | 0.43 | 0.412 | 0.429 | 0.394 | 0.426 | 0.272 | 0.288 | 0.257 | 0.297 | 0.277 |  |  |  |  | 
9 | NCI-H1650 | 0.827 | 0.928 | 0.973 | 0.966 | 1.01 | 0.451 | 0.359 | 0.325 | 0.442 | 0.414 | 0.489 | 0.444 | 0.468 | 0.484 | 0.574 |  |  |  |  | 
10 | IA-LM | 0.927 | 0.547 | 0.476 | 0.595 | 0.42 |  |  |  |  |  |  |  |  |  |  |  |  |  |  | 
11 | EBC-1 | 0.109 | 0.108 | 0.103 | 0.133 | 0.0957 |  |  |  |  |  |  |  |  |  |  |  |  |  |  | 
12 | NCI-H1299 | 1.06 | 1.21 | 0.634 | 1.07 | 1.05 |  |  |  |  |  |  |  |  |  |  |  |  |  |  | 
13 | SK-LU-1 | 0.41 | 0.438 | 0.449 | 0.432 | 0.469 | 0.607 | 0.683 | 0.688 | 0.74 | 0.681 | 0.225 | 0.187 | 0.248 | 0.269 | 0.265 |  |  |  |  | 
14 | SK-MES-1 | 0.701 | 0.662 | 0.638 | 0.501 | 0.547 | 0.839 | 0.826 | 0.825 | 0.827 | 0.741 | 0.398 | 0.512 | 0.499 | 0.414 | 0.483 |  |  |  |  | 
15 | NCI-H1792 |  |  |  |  |  | 0.335 | 0.245 | 0.318 | 0.315 | 0.183 | 0.646 | 0.489 | 0.427 | 0.421 | 0.362 | 0.312 | 0.312 | 0.304 | 0.185 | 0.262
16 | Calu-6 | 0.845 | 0.785 | 0.811 | 0.77 | 0.742 |  |  |  |  |  |  |  |  |  |  |  |  |  |  | 
17 | SW 1573 | 0.584 | 0.647 | 0.589 | 0.58 | 0.52 | 0.594 | 0.592 | 0.543 | 0.562 | 0.496 | 0.42 | 0.309 | 0.352 | 0.345 | 0.365 |  |  |  |  | 
18 | A549 | 0.688 | 0.421 | 0.306 | 0.393 | 0.435 |  |  |  |  |  |  |  |  |  |  |  |  |  |  | 
19 | NCI-H522 |  |  |  |  |  | 0.735 | 0.79 | 0.521 | 0.548 | 0.732 | 0.658 | 0.501 | 0.617 | 0.621 | 0.591 | 0.622 | 0.64 | 0.579 | 0.651 | 0.686
20 | NCI-H1703 | 0.347 | 0.406 | 0.361 | 0.338 | 0.328 |  |  |  |  |  |  |  |  |  |  |  |  |  | 0.132 | 0.121
21 | NCI-H520 | 0.478 | 0.335 | 0.321 | 0.434 | 0.349 | 0.349 | 0.318 | 0.324 | 0.255 | 0.325 | 0.21 | 0.179 | 0.218 | 0.185 | 0.193 |  |  |  |  | 
22 | NCI-H1563 | 0.721 | 0.768 | 0.685 | 0.712 | 0.562 | 0.715 | 0.572 | 0.618 | 0.576 | 0.546 | 0.628 | 0.645 | 0.622 | 0.693 | 0.643 |  |  |  |  | 
23 | NCI-H2009 | 0.961 | 1.04 | 0.826 | 1.04 | 0.936 | 0.986 | 0.98 | 0.927 | 0.848 | 0.771 | 0.34 | 0.344 | 0.424 | 0.374 | 0.397 |  |  |  |  | 

Reference: the supplement of paper PMC10307832
